Data: PubChem BioAssay (NCI)
Values joined by “and” are separate entries in the source; they are usually repeats but may differ in a detail not shown here. Equal entries are not always repeated.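 Protocol summary: plate cells (96-well), add compound at 5 concentrations, incubate 48 h, interpolate endpoints linearly. Here, GI50 denotes the concentration required for 50% inhibition of growth. At the TGI there is no net growth.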

Key:
Assay in all cases: inhibition of tumour cell growth, NCI panel, 48 h
M14 melanoma = system: M14 melanoma
UACC-62 melanoma = system: UACC-62 melanoma
SR leukemia = system: SR leukemia
HCT-116 colon = system: HCT-116 colon
HT29 colon = system: HT29 colon
MDA-MB-435 = system: MDA-MB-435
DU-145 prostate = system: DU-145 prostate
COLO 205 colon = system: COLO 205 colon
KM12 colon = system: KM12 colon
SNB-75 CNS = system: SNB-75 CNS

| SMILES | GI50 (M14 melanoma) | TGI (M14 melanoma) | GI50 (UACC-62 melanoma) | TGI (UACC-62 melanoma) | GI50 (SR leukemia) | TGI (SR leukemia) | GI50 (HCT-116 colon) | TGI (HCT-116 colon) | GI50 (HT29 colon) | TGI (HT29 colon) | GI50 (MDA-MB-435) | TGI (MDA-MB-435) | GI50 (DU-145 prostate) | TGI (DU-145 prostate) | GI50 (COLO 205 colon) | TGI (COLO 205 colon) | GI50 (KM12 colon) | TGI (KM12 colon) | GI50 (SNB-75 CNS) | TGI (SNB-75 CNS) |
| --- | --- | --- | --- | --- | --- | --- | --- | --- | --- | --- | --- | --- | --- | --- | --- | --- | --- | --- | --- | --- |
| Oc1ccc(Oc2cnc3cc(Cl)ccc3n2)cc1 | 46.5 µM | > 100 µM | 40.9 µM | > 100 µM | 22 µM | 68.4 µM | 37.1 µM | > 100 µM | 51.7 µM | > 100 µM | 23.8 µM | 97.3 µM | 42.4 µM | > 100 µM | 92.4 µM | > 100 µM | 13.4 µM | > 100 µM | 26 µM | > 100 µM |
| O=C(Cc1ccc(Nc2ccnc(C(F)(F)F)c2)cc1)Nc1cc(Cl)ccc1O | 12.3 µM | 33.6 µM | 2.75 µM | 13.9 µM | 2.45 µM | 14.9 µM | 5.12 µM | 26.5 µM | 21.4 µM | 53.5 µM | 4.33 µM | 17.5 µM | 9.27 µM | 38.1 µM | 21.7 µM | 55.4 µM | 4.36 µM | 16.9 µM | 11.9 µM | 37.5 µM |
| CCCCCCCCCCCCCCCC(=O)OCC1OC(OC)C(NC(=O)N(CCCl)N=O)C(O)C1O (stereo unspecified) | – | 36.4 µM | – | 15 µM | – | > 60.9 µM | – | 26.8 µM | – | 33.7 µM | – | 31.3 µM | – | 92.6 µM | – | 47.4 µM | – | 56.2 µM | – | 38.5 µM |
| CN(C)CC1CCCCCC(Br)C1=O (stereo unspecified) | – | 37.5 µM | – | 44 µM | – | 7.14 µM | – | 5.1 µM | – | 50.3 µM | – | 34.1 µM | – | 25 µM | – | 31.6 µM | – | 41 µM | – | > 100 µM |
| CCCC(C)c1c(Cl)nc(Cl)nc1Cl (stereo unspecified) | – | 3.92 µM | – | – | – | > 100 µM | – | 3.66 µM | – | 26.5 µM | – | 21 µM | – | 28.3 µM | – | 15.8 µM | – | 10.2 µM | – | 27.5 µM |
| Cc1cn([C@H]2C[C@H](O)[C@@H](CO)O2)c(=O)nc1N | – | > 100 µM | – | > 100 µM | – | > 100 µM | – | > 100 µM | – | > 100 µM | – | > 100 µM | – | > 100 µM | – | > 100 µM | – | > 100 µM | – | > 100 µM |
| O=C(Nc1ccc(Nc2ccncc2)cc1)c1ccc(Nc2ccnc3ccc([N+](=O)[O-])cc23)cc1[N+](=O)[O-] | 21.9 µM | > 100 µM | 11.1 µM | 58.8 µM | 16.6 µM | 38.8 µM | 23.7 µM | > 100 µM | 45.4 µM | > 100 µM | 23.3 µM | > 100 µM | 5.55 µM | 25.5 µM | 17.5 µM | > 100 µM | 6.47 µM | > 100 µM | 16 µM | 50.6 µM |
| O=C(Cn1c(C(=O)c2ccc(Cl)cc2)nc(-c2ccccc2)c1-c1ccccc1)c1ccc(Cl)cc1 | > 100 µM | > 100 µM | > 100 µM | > 100 µM | > 100 µM | > 100 µM | > 100 µM | > 100 µM | > 100 µM | > 100 µM | > 100 µM | > 100 µM | > 100 µM | > 100 µM | > 100 µM | > 100 µM | > 100 µM | > 100 µM | > 100 µM | > 100 µM |
| O=C1/C(=C/c2ccc(Cl)c(Cl)c2)CNC/C1=C\c1ccc(Cl)c(Cl)c1 | – | 33.9 µM | – | 29.1 µM | – | > 24 µM | – | 5.66 µM | – | 45.2 µM | – | 43.7 µM | – | > 100 µM | – | 17.3 µM | – | 24.9 µM | – | 33.9 µM |
| c1ccc2cc(C[n+]3ccn(Cc4ccc5ccccc5n4)c3)ccc2c1 | 0.727 µM and 3.26 µM | 4.55 µM and 17.1 µM | 0.374 µM and 1.91 µM | 1.5 µM and 5.94 µM | 0.364 µM and 2.82 µM | 2.16 µM and 13.7 µM | 0.413 µM and 3.29 µM | 6.86 µM and 15.8 µM | 0.366 µM and 2.55 µM | 3.01 µM and 14.3 µM | 0.312 µM and 2.46 µM | 1.31 µM and 10.6 µM | – | 12.4 µM and 22.4 µM | 0.239 µM and 1.72 µM | 0.738 µM and 5.07 µM | 0.384 µM and 2.25 µM | 1.74 µM and 7.56 µM | – | – |
| COc1ccc(-c2nc(-c3ccccn3)c(-c3ccccn3)n2CC(C)C)cc1OC1CCCC1 | 22.7 µM | 114 µM | – | – | 7.77 µM | 49.2 µM | 7.35 µM | > 165 µM | 35.3 µM | 134 µM | 31.3 µM | > 165 µM | 23.3 µM | > 165 µM | 52.2 µM | > 165 µM | 11.1 µM | > 165 µM | 24 µM | 123 µM |
| COc1cc(-c2nc(-c3ccc(-c4nc5ccc(F)cc5[nH]4)cc3)no2)cc(OC)c1OC | 3.23 µM | 10.5 µM | 2.35 µM | 6.61 µM | 2.98 µM | > 100 µM | – | – | 3.69 µM | 17.7 µM | 2.73 µM | 10.7 µM | 3.96 µM | 15.3 µM | 4.77 µM | 17 µM | 3.08 µM | 8.98 µM | 7.74 µM | 62.4 µM |
| COc1cc(OC)c(F)c(COc2cnc(Nc3cnn(CCO)c3)nc2)c1F | – | – | 0.518 µM | > 62 µM | 0.274 µM | – | 0.386 µM | > 100 µM | 0.36 µM | 4.31 µM | 0.2 µM | 0.59 µM | 2.15 µM | > 100 µM | 0.607 µM | 3.14 µM | 0.431 µM | 7.23 µM | 0.203 µM | 2.32 µM |
| CC[C@H]1CN(C)[C@H]2Cc3c([nH]c4ccccc34)C(=O)C[C@H]1C2C(=O)OC (stereo partly specified) | – | > 100 µM | – | > 100 µM | – | > 100 µM | – | > 100 µM | – | > 100 µM | – | > 100 µM | – | > 100 µM | – | > 100 µM | – | > 100 µM | – | – |
| Nc1nccc2c1ccn2-c1cccc(NC(=O)c2ccc(N3CCOCC3)c(C(F)(F)F)c2)c1 | 0.788 µM | 7.6 µM | 0.429 µM | 6.12 µM | 0.205 µM | > 11.3 µM | 0.677 µM | 8.66 µM | 0.32 µM | 1.45 µM | 0.163 µM | > 50 µM | 1.22 µM | 4.15 µM | – | – | 0.313 µM | 2.73 µM | 0.307 µM | 2.25 µM |
